The source of these data is PMC7766327, “Inhibition of Pneumolysin Cytotoxicity by Hydrolysable Tannins” (Antibiotics, 2020).

Where two headings read alike, the source gives them in different places.

For assay [1], the target named is T1, pneumolysin (Ply) (Streptococcus pneumoniae serotype 2, UniProt Q04IN8).
T1 construct: made in house; host or cells: E. coli BL21(DE3)
Briefly: cell-based. The class given is cell-based. As to the method:
Native human erythrocytes were taken into EDTA tubes. The erythrocytes were washed three times with PBS (0.15 M NaCl, 2.7 mM KCl, 8.1 mM Na2HPO4 and 1.5 mM KH2PO4) by centrifugation at 700× g for 10 min. The purified erythrocytes were stored at +4 °C. Erythrocytes (1% v/v) in PBS were mixed with 1 nM Ply and dilution series of polyphenol inhibitors in 96-well microtiter plates. The reaction was incubated for 30 min at 37 °C. The plates were centrifuged, and the supernatant was pipetted into flat-bottomed microtiter plates to measure the absorbance at 570 nm (VICTOR X4, PerkinElmer, Turku, Finland) of the released hemoglobin from lysed erythrocytes. The absorbances of triplicate measurements are presented as a function of inhibitor concentration. The IC50 values were calculated with Origin data analysis software (2016, OriginLab Corporation, Northampton, MA, USA).

For assay [2], the target named is T1, pneumolysin (Ply). Briefly: Precipitation assay of pneumolysin-tannin interaction. The class given is binding. The note with it: for Minimum Precipitating Concentration: 10 μM Ply, Na-acetate buffer pH 5.0, 25 °C, 30 min, absorbance 414 nm; for Precipitation Relative Power: fold compared to vescalagin (=1); for Fold higher precipitating concentration compared to hemolysis IC50: minimum precipitating concentration vs hemolysis IC50. As to the method:
The precipitation assay with tannins was done as described previously with bovine serum albumin [22]. First, 10 μM of Ply and dilution series of polyphenols (5–1000 µM) were incubated in a Na-acetate buffer (200 mM NaCl and 50 mM CH3COONa; pH 5.0) at 25 °C for 30 min with shaking. The reactions were carried out in Multiskan Ascent plate reader (Labsystems, Vantaa, Finland) and the precipitation was measured at 414 nm. The minimum concentration precipitating Ply was calculated with Origin data analysis software (2016, OriginLab Corporation, Northampton, MA, USA).

Setting [3] is: IC50 (screening with hemolysis assays), estimated from the inhibition curves, two-fold dilutions of tannins.
Where [4] appears, read: Hemolysis Inhibition IC50, 1 nM Ply, 1% human erythrocytes, 30 min 37 °C, logistic fit.
Setting [5] is: classification by IC50 from two-fold dilutions.
Where [6] appears, read: read-out: IC50 (screening with hemolysis assays), estimated from the inhibition curves, two-fold dilutions of tannins.

T1 sequence (Q04IN8 whole entry): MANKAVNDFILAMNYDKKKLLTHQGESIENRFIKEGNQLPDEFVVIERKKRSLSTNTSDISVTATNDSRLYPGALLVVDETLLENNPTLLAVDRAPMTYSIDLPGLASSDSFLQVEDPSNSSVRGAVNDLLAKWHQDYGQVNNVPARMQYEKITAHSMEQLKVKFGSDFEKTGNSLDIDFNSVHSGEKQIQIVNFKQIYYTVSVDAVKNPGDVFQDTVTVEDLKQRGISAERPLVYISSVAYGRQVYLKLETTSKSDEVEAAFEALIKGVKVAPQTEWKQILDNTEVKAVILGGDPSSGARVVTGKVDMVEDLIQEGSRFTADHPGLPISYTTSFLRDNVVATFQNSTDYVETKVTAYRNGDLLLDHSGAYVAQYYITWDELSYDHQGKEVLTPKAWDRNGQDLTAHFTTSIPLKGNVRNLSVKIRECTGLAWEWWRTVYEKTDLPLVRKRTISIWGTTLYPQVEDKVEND

Regarding `O=C(O[C@@H]1O[C@H](CO)[C@@H](O)[C@H](O)[C@H]1O)c1cc(O)c(O)c(O)c1` [1-O-galloyl-β-D-glucose], the IC50 in assay [1] (setting [3]) is greater than 100 nM.

Turning to `O=C1OCC2OC(=O)c3cc(O)c(O)c(O)c3-c3c(O)c(O)c(O)c4c3C(=O)OC(C2OC(=O)c2cc(O)c(O)c(O)c2-c2c1cc(O)c(O)c2O)C1OC(=O)c2c-4c(O)c(O)c(O)c2C1O` (stereo not shown) [Vescalagin], in assay [2], the “Minimum Precipitating Concentration” value is given as 820 µM, the “Precipitation Relative Power” value stood at 1 and the “Fold higher precipitating concentration compared to hemolysis IC50” value (shortened to “Fold higher precipitating concentration”) stood at 3400 fold. The same molecule returned an IC50 in assay [1] (setting [4]) of 240 ± 5.3 nM. Moreover, the IC50 in assay [1] (setting [3]) is greater than 100 nM. Also, in assay [1] (setting [5]), the “Inhibitor class in hemolysis inhibition assay” value (shortened to “Inhibitor class”) is “weak (negative or weak inhibitors (IC50 ≥ 100 nM))”. Also, in assay [1] (relative to IC50 of vescalagin (=1)), the “Hemolysis Inhibition Inhibitory Power” value was determined as 1.

In the case of `O=C(OC1OC2COC(=O)c3cc(O)c(O)c(O)c3-c3c(cc(O)c(O)c3O)C(=O)OC2C2OC(=O)c3cc(O)c(O)c(O)c3-c3c(cc(O)c(O)c3O)C(=O)OC12)c1cc(O)c(O)c(Oc2c(C(=O)OC3OC4COC(=O)c5cc(O)c(O)c(O)c5-c5c(cc(O)c(O)c5O)C(=O)OC4C4OC(=O)c5cc(O)c(O)c(O)c5-c5c(cc(O)c(O)c5O)C(=O)OC34)cc(O)c(O)c2O)c1` (stereo not shown) [Agrimoniin], the IC50 in assay [1] (setting [6]) was 30 nM.

`O=C(OC1COC(=O)c2cc(O)c(O)c(O)c2-c2c(cc(O)c(O)c2O)C(=O)OC1C1OC(=O)c2cc(O)c(O)c(O)c2-c2c(O)c(O)c(O)c3c2C(=O)OC1C3O)c1cc(O)c(O)c(O)c1` (stereo not shown) [Stachyurin]: the concentration for half-maximal inhibition (IC50) in assay [1] (setting [3]) was greater than 100 nM.

On to `O=C(OC1O[C@@H]2COC(=O)c3cc(O)c(O)c(O)c3-c3c(cc(O)c(O)c3O)C(=O)O[C@H]2[C@H](OC(=O)c2cc(O)c(O)c(O)c2)[C@H]1OC(=O)c1cc(O)c(O)c(O)c1)c1cc(O)c(O)c(O)c1` (stereo partly shown) [Tellimagrandin II], for which, in assay [1], the “Inhibitor class” value was “potent (key: negative or weak inhibitors (IC50 ≥ 100 nM); moderate inhibitors (IC50 40–90 nM); potent inhibitors (IC50 10–30 nM))”. Besides, the IC50 in assay [1] (setting [3]) is 10 nM.

Regarding `O=C(OC1OC2COC(=O)c3cc(O)c(O)c(O)c3-c3c(cc(O)c(O)c3O)C(=O)OC2C2OC(=O)c3cc(O)c(O)c(O)c3-c3c(cc(O)c(O)c3O)C(=O)OC12)c1cc(O)c(O)c(Oc2c(O)c(O)c(O)c3c2C(=O)OC2C(COC(=O)c4cc(O)c(O)c(O)c4-3)OC(OC(=O)c3cc(O)c(O)c(Oc4c(O)c(O)c(O)c5c4C(=O)OC4C(COC(=O)c6cc(O)c(O)c(O)c6-5)OC(OC(=O)c5cc(O)c(O)c(O)c5)C5OC(=O)c6cc(O)c(O)c(O)c6-c6c(cc(O)c(O)c6O)C(=O)OC45)c3)C3OC(=O)c4cc(O)c(O)c(O)c4-c4c(cc(O)c(O)c4O)C(=O)OC23)c1` (stereo not shown) [Lambertianin C], in assay [1] (setting [6]), the half-inhibitory concentration (IC50) is 20 nM.

Regarding `O=C1O[C@H]2[C@@H]3OC(=O)c4cc(O)c(O)c(O)c4-c4c(cc(O)c(O)c4O)C(=O)OC[C@H]2O[C@@H](OC(=O)c2cc(O)c(O)c(O)c2)[C@@H]3OC(=O)c2cc(O)c(O)c3c2[C@@H]2C1=CC(=O)[C@](O)(O3)C2(O)O` [Geraniin], the IC50 in assay [1] (setting [3]) was 100 nM.

Turning to `O=C(O[C@@H]1O[C@@H]2COC(=O)c3cc(O)c(O)c(O)c3-c3c(cc(O)c(O)c3O)C(=O)O[C@H]2[C@H](OC(=O)c2cc(O)c(O)c(O)c2)[C@H]1OC(=O)c1cc(O)c(O)c(O)c1)c1cc(O)c(O)c(Oc2c(C(=O)O[C@H]3O[C@@H]4COC(=O)c5cc(O)c(O)c(O)c5-c5c(cc(O)c(O)c5O)C(=O)O[C@H]4[C@@H]4OC(=O)c5cc(O)c(O)c(O)c5-c5c(cc(O)c(O)c5O)C(=O)O[C@@H]34)cc(O)c(O)c2O)c1` [Gemin A], in assay [2], the “Minimum Precipitating Concentration” value is recorded as 6.2 µM, the “Precipitation Relative Power” value is reported as 130 and the “Fold higher precipitating concentration” value turned out to be 150 fold. Further, the “Hemolysis Inhibition Inhibitory Power” value in assay [1] came out at 5.9. Besides, 41 ± 1 nM corresponded to half-maximal inhibition in assay [1] (setting [4]) (IC50). Also, the IC50 in assay [1] (setting [3]) was 20 nM. For the same molecule, the “Inhibitor class” value in assay [1] (setting [5]) is listed as “potent (potent inhibitors (IC50 10–30 nM))”.

Turning to `O=C(O[C@@H]1O[C@@H]2COC(=O)c3cc(O)c(O)c(O)c3-c3c(cc(O)c(O)c3O)C(=O)O[C@H]2[C@@H]2OC(=O)c3cc(O)c(O)c(O)c3-c3c(cc(O)c(O)c3O)C(=O)O[C@@H]12)c1cc(O)c(O)c(O)c1` [Casuarictin], in assay [1] (setting [3]), the IC50 is 40 nM.

Turning to `O=C(O[C@H]1[C@@H]2OC(=O)c3cc(O)c(O)c(O)c3-c3c4cc(c(O)c3O)Oc3c(cc(O)c(O)c3O)C(=O)O[C@H]3C(O)O[C@@H]5COC(=O)c6cc(O)c(O)c(O)c6-c6c(cc(c(O)c6O)Oc6c(cc(O)c(O)c6O)C(=O)O[C@H]1C(O)O[C@@H]2COC4=O)C(=O)O[C@H]5[C@@H]3OC(=O)c1cc(O)c(O)c(O)c1)c1cc(O)c(O)c(O)c1` (stereo partly shown) [Oenothein B], in assay [2], the “Minimum Precipitating Concentration” value came out at 510 µM, the “Precipitation Relative Power” value came to 1.6 and the “Fold higher precipitating concentration” value came out at 9300 fold. In addition, the “Hemolysis Inhibition Inhibitory Power” value in assay [1] was determined as 4.4. In assay [1] (setting [4]), the IC50 turned out to be 55 ± 2.1 nM. Further, the IC50 in assay [1] (setting [3]) was 60 nM. Further, in assay [1] (setting [5]), the “Inhibitor class” value is on record as “moderate (moderate inhibitors (IC50 40–90 nM))”.

As to `O=C1O[C@H]2[C@@H]3OC(=O)c4cc(O)c(O)c(O)c4-c4c(O)c(O)c5oc(=O)c6c(c(O)c(O)c7oc(=O)c4c5c76)-c4c(cc(O)c(O)c4O)C(=O)OC[C@H]3OC(O)[C@@H]2OC(=O)c2cc(O)c(O)c(O)c2-c2c1cc(O)c(O)c2O` (mixture of isomers) [Punicalagin], the half-inhibitory concentration (IC50) in assay [1] (setting [3]) was 60 nM.

For `O=C1OC[C@H]2OC(O)[C@@H]3OC(=O)c4cc(O)c(O)c(O)c4-c4c(cc(O)c(O)c4O)C(=O)O[C@H]3[C@@H]2OC(=O)c2cc(O)c(O)c(O)c2-c2c1cc(O)c(O)c2O` (stereo partly shown) [Pedunculagin], in assay [1] (setting [3]), the IC50 was greater than 100 nM.

As for `O=C(O[C@H]1[C@@H]2OC(=O)c3cc(O)c(O)c(O)c3-c3c(cc(O)c(O)c3O)C(=O)OC[C@H]2OC(O)[C@@H]1OC(=O)c1cc(O)c(O)c(O)c1)c1cc(O)c(O)c(O)c1` (stereo partly shown) [Tellimagrandin I], the concentration for half-maximal inhibition (IC50) in assay [1] (setting [3]) was 60 nM.

In the case of `O=C(O[C@@H]1O[C@@H]2COC(=O)c3cc(O)c(O)c(O)c3-c3c(cc(O)c(O)c3O)C(=O)O[C@H]2[C@H](O)[C@H]1OC(=O)c1cc(O)c(O)c(O)c1)c1cc(O)c(O)c(O)c1` [1,2,-di-O-galloyl-4,6-HHDP-β-D-glucose], the IC50 in assay [1] (setting [3]) was 70 nM.

Take `O=C1OC[C@H]2OC(=O)c3cc(O)c(O)c(O)c3-c3c(O)c(O)c(O)c4c3C(=O)O[C@H]([C@H]3OC(=O)c5c-4c(O)c(O)c(O)c5[C@H]3O)[C@@H]2OC(=O)c2cc(O)c(O)c(O)c2-c2c1cc(O)c(O)c2O` [Castalagin]: the IC50 in assay [1] (setting [3]) was 80 nM.

As to `O=C(OC1OC2COC(=O)c3cc(O)c(O)c(O)c3-c3c(cc(O)c(O)c3O)C(=O)OC2C2OC(=O)c3cc(O)c(O)c(O)c3-c3c(cc(O)c(O)c3O)C(=O)OC12)c1cc(O)c(O)c(Oc2c(O)c(O)c(O)c3c2C(=O)OC2C(COC(=O)c4cc(O)c(O)c(O)c4-3)OC(OC(=O)c3cc(O)c(O)c(O)c3)C3OC(=O)c4cc(O)c(O)c(O)c4-c4c(cc(O)c(O)c4O)C(=O)OC23)c1` (stereo not shown) [Sanguiin H-6], in assay [1] (setting [6]), the half-inhibitory concentration (IC50) is 20 nM.

For `O=C(O[C@@H]1COC(=O)c2cc(O)c(O)c(O)c2-c2c(cc(O)c(O)c2O)C(=O)O[C@H]1[C@@H]1OC(=O)c2cc(O)c(O)c(O)c2-c2c(O)c(O)c(O)c3c2C(=O)O[C@H]1[C@@H]3O)c1cc(O)c(O)c(O)c1` [Casuarinin], the half-inhibitory concentration (IC50) in assay [1] (setting [3]) is 90 nM.

In the case of `O=C(O)C[C@@H]1C(=O)O[C@H]2[C@@H]3OC(=O)c4cc(O)c(O)c(O)c4-c4c(cc(O)c(O)c4O)C(=O)OC[C@H]2O[C@@H](OC(=O)c2cc(O)c(O)c(O)c2)[C@@H]3OC(=O)c2cc(O)c(O)c3c2[C@H]1[C@H](O)C(=O)O3` [Chebulagic acid], in assay [1] (setting [3]), the IC50 was greater than 100 nM.
